Laboratory results reported in US20230085307A1, “PYRIDAZINONE COMPOUND AND HERBICIDE” (NISSAN CHEMICAL CORPORATION, priority 2019, published 2023).

Key:
[1] = tested on: green foxtail; experiment: Test Example 4: herbicidal effect by soil treatment (Table 19, symbol G); format: in vivo, green foxtail (Setaria viridis); conditions: amount of applied herbicide 320 g/ha
Outline: (§1)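 Herbicidal effect was rated 3 weeks after treatment, using the scoring criteria of an earlier test. The compound, formulated as an emulsion and diluted in water to a set herbicide amount, had been sprayed uniformly on soil over freshly sown seeds. Growth took place in a greenhouse at 25° C. to 30° C.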

[2] = tested on: chickweed; experiment: Test Example 4: herbicidal effect by soil treatment (Table 19, symbol P); format: in vivo, common chickweed (Stellaria media); conditions: amount of applied herbicide 320 g/ha
Outline: as §1

[3] = tested on: false cleavers; experiment: Test Example 5: herbicidal effect by foliage application, plastic box (Table 20, symbol Q); format: in vivo, false cleavers (Galium spurium); conditions: foliage application, 320 g/ha, evaluated three weeks after application
Outline: (§2)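 Foliar spray test: emulsion formulation diluted in water to a set application rate, sprayed onto 14-day-old plants raised in diluvial soil at 25° C to 30° C under glass. Both herbicidal effect and crop effect rated visually three weeks later.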

[4] = tested on: redroot pigweed; experiment: Test Example 4: herbicidal effect by soil treatment (Table 19, symbol N); format: in vivo, redroot pigweed (Amaranthus retroflexus); conditions: amount of applied herbicide 320 g/ha
Outline: as §1

[5] = tested on: Italian ryegrass; experiment: Test Example 5: herbicidal effect by foliage application, plastic box (Table 20, symbol K); format: in vivo, Italian ryegrass (Lolium multiflorum); conditions: foliage application, 320 g/ha, evaluated three weeks after application
Outline: as §2

[6] = tested on: redroot pigweed; experiment: Test Example 5: herbicidal effect by foliage application, plastic box (Table 20, symbol N); format: in vivo, redroot pigweed (Amaranthus retroflexus); conditions: foliage application, 320 g/ha, evaluated three weeks after application
Outline: as §2

[7] = tested on: windgrass; experiment: Test Example 4: herbicidal effect by soil treatment (Table 19, symbol L); format: in vivo, windgrass (Apera spica-venti); conditions: amount of applied herbicide 320 g/ha
Outline: as §1

[8] = tested on: rice flat sedge; experiment: Test Example 3: herbicidal effect by foliage application, Wagner pot (Table 18, symbol E); format: in vivo, rice flat sedge (Cyperus iria)
Outline: (§3)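 Plants were sown in alluvial soil held under 0.1–0.5 cm standing water and grown 14 days in a greenhouse at 25–30 °C. An emulsifiable formulation, water-diluted to the set dose, was then sprayed onto the foliage, and effects were scored three weeks later using previously defined criteria.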

[9] = tested on: southern crabgrass; experiment: Test Example 5: herbicidal effect by foliage application, plastic box (Table 20, symbol F); format: in vivo, southern crabgrass (Digitaria ciliaris); conditions: foliage application, 320 g/ha, evaluated three weeks after application
Outline: as §2

[10] = tested on: windgrass; experiment: Test Example 5: herbicidal effect by foliage application, plastic box (Table 20, symbol L); format: in vivo, windgrass (Apera spica-venti); conditions: foliage application, 320 g/ha, evaluated three weeks after application
Outline: as §2

[11] = tested on: barnyard grass; experiment: Test Example 5: herbicidal effect by foliage application, plastic box (Table 20, symbol H); format: in vivo, barnyard grass (Echinochloa crus-galli); conditions: foliage application, 320 g/ha, evaluated three weeks after application
Outline: as §2

[12] = tested on: lambsquarters; experiment: Test Example 5: herbicidal effect by foliage application, plastic box (Table 20, symbol O); format: in vivo, lambsquarters (Chenopodium album); conditions: foliage application, 320 g/ha, evaluated three weeks after application
Outline: as §2

[13] = tested on: green foxtail; experiment: Test Example 5: herbicidal effect by foliage application, plastic box (Table 20, symbol G); format: in vivo, green foxtail (Setaria viridis); conditions: foliage application, 320 g/ha, evaluated three weeks after application
Outline: as §2

[14] = tested on: chickweed; experiment: Test Example 5: herbicidal effect by foliage application, plastic box (Table 20, symbol P); format: in vivo, common chickweed (Stellaria media); conditions: foliage application, 320 g/ha, evaluated three weeks after application
Outline: as §2

[15] = tested on: barnyard grass; experiment: Test Example 3: herbicidal effect by foliage application, Wagner pot (Table 18, symbol H); format: in vivo, barnyard grass (Echinochloa crus-galli)
Outline: as §3

[16] = tested on: persian speedwell; experiment: Test Example 5: herbicidal effect by foliage application, plastic box (Table 20, symbol R); format: in vivo, Persian speedwell (Veronica persica); conditions: foliage application, 320 g/ha, evaluated three weeks after application
Outline: as §2

[17] = tested on: blackgrass; experiment: Test Example 4: herbicidal effect by soil treatment (Table 19, symbol J); format: in vivo, blackgrass (Alopecurus myosuroides); conditions: amount of applied herbicide 320 g/ha
Outline: as §1

[18] = tested on: barnyard grass; experiment: Test Example 4: herbicidal effect by soil treatment (Table 19, symbol H); format: in vivo, barnyard grass (Echinochloa crus-galli); conditions: amount of applied herbicide 320 g/ha
Outline: as §1

[19] = tested on: velvetleaf; experiment: Test Example 4: herbicidal effect by soil treatment (Table 19, symbol M); format: in vivo, velvetleaf (Abutilon theophrasti); conditions: amount of applied herbicide 320 g/ha
Outline: as §1

[20] = tested on: lambsquarters; experiment: Test Example 4: herbicidal effect by soil treatment (Table 19, symbol O); format: in vivo, lambsquarters (Chenopodium album); conditions: amount of applied herbicide 320 g/ha
Outline: as §1

[21] = tested on: persian speedwell; experiment: Test Example 4: herbicidal effect by soil treatment (Table 19, symbol R); format: in vivo, Persian speedwell (Veronica persica); conditions: amount of applied herbicide 320 g/ha
Outline: as §1

[22] = tested on: southern crabgrass; experiment: Test Example 4: herbicidal effect by soil treatment (Table 19, symbol F); format: in vivo, southern crabgrass (Digitaria ciliaris); conditions: amount of applied herbicide 320 g/ha
Outline: as §1

[23] = tested on: Chinese sprangletop; experiment: Test Example 3: herbicidal effect by foliage application, Wagner pot (Table 18, symbol D); format: in vivo, chinese sprangletop (Leptochloa chinensis)
Outline: as §3

[24] = tested on: wild oat; experiment: Test Example 5: herbicidal effect by foliage application, plastic box (Table 20, symbol I); format: in vivo, wild oat (Avena fatua); conditions: foliage application, 320 g/ha, evaluated three weeks after application
Outline: as §2

[25] = tested on: wild oat; experiment: Test Example 4: herbicidal effect by soil treatment (Table 19, symbol I); format: in vivo, wild oat (Avena fatua); conditions: amount of applied herbicide 320 g/ha
Outline: as §1

[26] = tested on: Italian ryegrass; experiment: Test Example 4: herbicidal effect by soil treatment (Table 19, symbol K); format: in vivo, Italian ryegrass (Lolium multiflorum); conditions: amount of applied herbicide 320 g/ha
Outline: as §1

[27] = tested on: velvetleaf; experiment: Test Example 5: herbicidal effect by foliage application, plastic box (Table 20, symbol M); format: in vivo, velvetleaf (Abutilon theophrasti); conditions: foliage application, 320 g/ha, evaluated three weeks after application
Outline: as §2

[28] = tested on: blackgrass; experiment: Test Example 5: herbicidal effect by foliage application, plastic box (Table 20, symbol J); format: in vivo, blackgrass (Alopecurus myosuroides); conditions: foliage application, 320 g/ha, evaluated three weeks after application
Outline: as §2

[29] = amount of applied herbicide 320 g/ha

Compound	G: green foxtail, herbicidal effect rating [1]	P: chickweed, herbicidal effect rating [2]	herbicidal effect on Q: false cleavers [3]	N: redroot pigweed, herbicidal effect rating [4]	herbicidal effect on K: Italian ryegrass [5]	herbicidal effect on N: redroot pigweed [6]	L: windgrass, herbicidal effect rating [7]	herbicidal effect on F: southern crabgrass [9]	herbicidal effect on L: windgrass [10]	herbicidal effect on H: barnyard grass [11]	herbicidal effect on O: lambsquarters [12]	herbicidal effect on G: green foxtail [13]	herbicidal effect on P: chickweed [14]	herbicidal effect on R: persian speedwell [16]	J: blackgrass, herbicidal effect rating [17]	H: barnyard grass, herbicidal effect rating [18]	M: velvetleaf, herbicidal effect rating [19]	O: lambsquarters, herbicidal effect rating [20]	R: persian speedwell, herbicidal effect rating [21]	F: southern crabgrass, herbicidal effect rating [22]	other results
COc1ccc(-c2sc3ccc(Cl)cc3c2-c2c(O)c(C)nn(C)c2=O)cc1 [2-103]	0 (Herbicidal rate of 5% or less (almost no effect))	4 (Herbicidal rate of 70% or more and less than 90%)	3 (Herbicidal rate of 40% or more and less than 70%)	4 (Herbicidal rate of 70% or more and less than 90%)	0 (Herbicidal rate of 5% or less (almost no effect))	3 (Herbicidal rate of 40% or more and less than 70%)	0 (Herbicidal rate of 5% or less (almost no effect))	0 (Herbicidal rate of 5% or less (almost no effect))	5 (Herbicidal rate of 90% or more (almost completely withered))	0 (Herbicidal rate of 5% or less (almost no effect))	4 (Herbicidal rate of 70% or more and less than 90%)	0 (Herbicidal rate of 5% or less (almost no effect))	5 (Herbicidal rate of 90% or more (almost completely withered))	5 (Herbicidal rate of 90% or more (almost completely withered))	0 (Herbicidal rate of 5% or less (almost no effect))	0 (Herbicidal rate of 5% or less (almost no effect))	3 (Herbicidal rate of 40% or more and less than 70%)	4 (Herbicidal rate of 70% or more and less than 90%)	5 (Herbicidal rate of 90% or more (almost completely withered))	0 (Herbicidal rate of 5% or less (almost no effect))	herbicidal effect on E (rice flat sedge), rating 0-5 ([8]; 320 g/ha): 5 (Herbicidal rate of 90% or more (almost completely withered)); herbicidal effect on H (barnyard grass), rating 0-5 ([15]; 320 g/ha): 3 (Herbicidal rate of 40% or more and less than 70%); herbicidal effect on D (Chinese sprangletop), rating 0-5 ([23]; 320 g/ha): 2 (Herbicidal rate of 20% or more and less than 40%); herbicidal effect on I: wild oat [24]: 0 (Herbicidal rate of 5% or less (almost no effect)); I: wild oat, herbicidal effect rating [25]: 0 (Herbicidal rate of 5% or less (almost no effect)); K: Italian ryegrass, herbicidal effect rating [26]: 0 (Herbicidal rate of 5% or less (almost no effect)); herbicidal effect on M: velvetleaf [27]: 4 (Herbicidal rate of 70% or more and less than 90%); herbicidal effect on J: blackgrass [28]: 1 (Herbicidal rate of 5% or more and less than 20%)
COc1ccc(-c2sc3ccc(Cl)cc3c2-c2c(O)c(C)nn(C)c2=O)cc1OC [2-123]	0 (Herbicidal rate of 5% or less (almost no effect))	3 (Herbicidal rate of 40% or more and less than 70%)	1 (Herbicidal rate of 5% or more and less than 20%)	0 (Herbicidal rate of 5% or less (almost no effect))	2 (Herbicidal rate of 20% or more and less than 40%)	0 (Herbicidal rate of 5% or less (almost no effect))	0 (Herbicidal rate of 5% or less (almost no effect))	0 (Herbicidal rate of 5% or less (almost no effect))	1 (Herbicidal rate of 5% or more and less than 20%)	0 (Herbicidal rate of 5% or less (almost no effect))	2 (Herbicidal rate of 20% or more and less than 40%)	0 (Herbicidal rate of 5% or less (almost no effect))	5 (Herbicidal rate of 90% or more (almost completely withered))	5 (Herbicidal rate of 90% or more (almost completely withered))	0 (Herbicidal rate of 5% or less (almost no effect))	0 (Herbicidal rate of 5% or less (almost no effect))	0 (Herbicidal rate of 5% or less (almost no effect))	4 (Herbicidal rate of 70% or more and less than 90%)	4 (Herbicidal rate of 70% or more and less than 90%)	0 (Herbicidal rate of 5% or less (almost no effect))	herbicidal effect on E: rice flat sedge [8, 29]: 5 (Herbicidal rate of 90% or more (almost completely withered)); herbicidal effect on H: barnyard grass [15, 29]: 3 (Herbicidal rate of 40% or more and less than 70%); herbicidal effect on D: Chinese sprangletop [23, 29]: 0 (Herbicidal rate of 5% or less (almost no effect)); herbicidal effect on I: wild oat [24]: 0 (Herbicidal rate of 5% or less (almost no effect)); I: wild oat, herbicidal effect rating [25]: 0 (Herbicidal rate of 5% or less (almost no effect)); K: Italian ryegrass, herbicidal effect rating [26]: 0 (Herbicidal rate of 5% or less (almost no effect)); herbicidal effect on M: velvetleaf [27]: 3 (Herbicidal rate of 40% or more and less than 70%); herbicidal effect on J: blackgrass [28]: 4 (Herbicidal rate of 70% or more and less than 90%)
